The text below walks through data of patent publication US7022716B2, “Cyclic amine phenyl beta-3 adrenergic receptor agonists” (Wyeth, priority 2000, dated 2006).

Series [1] concerns the target T1, human β3 adrenergic receptor (Homo sapiens, UniProt P13945).
T1 construct: Full length β3 AR clones (402 amino acids) containing the last 6 amino acids of hβ3-AR are prepared; expressed in transfected cells; host or cells: CHO (Chinese hamster ovary) cells
Description: cAMP (SPA) response in CHO cells transfected with human β3 adrenergic receptor. The settings on record: maximal response relative to maximal response of isoproterenol at 10^-5 M. It is filed as cell-based. More on the design: key: fraction of maximal isoproterenol (10^-5 M) response. The method, boiled down:
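Reactions were stopped with 0.2N HCl and neutralised, and cAMP was measured by SPA. Activity is expressed as percent of the maximal 10^−5 M isoproterenol response.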

T1 sequence (P13945 whole entry): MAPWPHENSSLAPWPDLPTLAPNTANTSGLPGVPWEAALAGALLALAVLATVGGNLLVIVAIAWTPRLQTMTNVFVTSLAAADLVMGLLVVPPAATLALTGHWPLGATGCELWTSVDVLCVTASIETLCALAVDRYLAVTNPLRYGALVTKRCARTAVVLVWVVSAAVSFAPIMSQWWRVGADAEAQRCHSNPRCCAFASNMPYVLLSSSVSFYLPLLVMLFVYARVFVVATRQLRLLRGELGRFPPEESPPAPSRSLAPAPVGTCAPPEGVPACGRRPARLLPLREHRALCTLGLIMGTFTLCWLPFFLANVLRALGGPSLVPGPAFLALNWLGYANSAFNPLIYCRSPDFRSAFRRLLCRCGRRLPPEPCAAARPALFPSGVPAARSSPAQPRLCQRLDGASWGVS

One may read the melting point as the temperature of the solid-liquid transition. On to `CS(=O)(=O)Nc1cc(C(O)CNC2CCN(c3ccc(C=C4SC(=O)NC4=O)cc3)CC2)ccc1O` (stereo not drawn), for which the melting point is > 200 °C (dec.). On to `CC(=O)Nc1ccc(S(=O)(=O)Nc2ccc(N3CCC(NC[C@H](O)c4ccc(O)c(NS(C)(=O)=O)c4)CC3)cc2)cc1` [Example 291, N-{4-[(4-{4-[((2R)-2-Hydroxy-2-{4-hydroxy-3-[(methylsulfonyl)amino]-phenyl}ethyl)amino]-1-piperidinyl}anilino)sulfonyl]phenyl}acetamide], for which the “IA(β3)” value in series [1] is reported as 1.07.

On to `CC(=O)Nc1ccc(S(=O)(=O)Nc2ccc(N3CC(NC[C@H](O)COc4ccc(O)cc4)C3)cc2)cc1` [Example 413, N-(4-{[4-(3-{[(2S)-2-Hydroxy-3-(4-hydroxyphenoxy)propyl]amino}-1-azetidinyl)anilino]-sulfonyl}phenyl)acetamide], for which the “IA(β3)” value in series [1] is 0.73. As for `COc1ccc(S(=O)(=O)Nc2ccc(N3CC(NC[C@H](O)COc4cccc5[nH]c6ccccc6c45)C3)cc2)cc1OC` [Example 416, N-[4-(3-{[(2S)-3-(9H-Carbazol-4-yloxy)-2-hydroxypropyl]amino}-1-azetidinyl)phenyl]-3,4-dimethoxybenzenesulfonamide], in series [1], the “IA(β3)” value is 0.48. As to `CC(=O)Nc1ccc(S(=O)(=O)Nc2ccc(N3CCC(NCC(O)c4ccc(O)cc4)CC3)cc2)cc1` (stereo not drawn) [Example 259, N-(4-{[4-(4-{[2-Hydroxy-2-(4-hydroxyphenyl)ethyl]amino}-1-piperidinyl)-anilino]sulfonyl}phenyl)acetamide], the “IA(β3)” value in series [1] is 0.97. On the same count and under the same terms, the figure for `COc1ccc(S(=O)(=O)Nc2ccc(N3CCC(NC[C@H](O)COc4cccc5[nH]c(=O)[nH]c45)CC3)cc2)cc1` [Example 330, N-{4-[4-({(2S)-2-Hydroxy-3-[(2-oxo-2,3-dihydro-1H-benzimidazol-4-yl)oxy]propyl}-amino)-1-piperidinyl]phenyl}-4-methoxybenzenesulfonamide] is 0.98; for `COC(=O)c1sccc1S(=O)(=O)Nc1ccc(N2CCC(NC[C@H](O)c3ccc(O)c(NS(C)(=O)=O)c3)CC2)cc1` [Example 320, Methyl3-[(4-{4-[((2R)-2-hydroxy-2-{4-hydroxy-3-[(methylsulfonyl)amino]-phenyl}ethyl)amino]-1-piperidinyl}anilino)sulfonyl]-2-thiophenecarboxylate] it is 0.87. As to `CCCCS(=O)(=O)N(CC(=O)OCC)c1ccc(N2CCC(NC[C@H](O)c3ccc(O)c(NS(C)(=O)=O)c3)CC2)cc1` [Example 345], the “IA(β3)” value in series [1] turned out to be 1. On to `CC(=O)Nc1ccc(S(=O)(=O)Nc2ccc(N3CCC(NC[C@H](O)COc4cccc5[nH]c(=O)[nH]c45)CC3)cc2)cc1` [Example 274], for which the “IA(β3)” value in series [1] was determined as 1.15. Take `CCCCCCCCS(=O)(=O)Nc1ccc(N2CCC(NC[C@H](O)COc3cccc4[nH]c(=O)[nH]c34)CC2)cc1` [Example 298, N-{4-[4-({(2S)-2-Hydroxy-3-[(2-oxo-2,3-dihydro-1H-benzimidazol-4-yl)oxy]propyl}amino)-1-piperidinyl]phenyl}-1-octanesulfonamide]: the “IA(β3)” value in series [1] is 0.78. Regarding `CS(=O)(=O)Nc1cc([C@@H](O)CNC2CCN(c3ccc(NC(=O)CC(=O)O)cc3)CC2)ccc1O` [Example 372, 3-(4-{4-[((2R)-2-Hydroxy-2-{4-hydroxy-3-[(methylsulfonyl)amino]phenyl}ethyl)amino]-1-piperidinyl}anilino)-3-oxopropanoic acid], the “IA(β3)” value in series [1] came out at 1.

Take `CS(=O)(=O)Nc1cc(C(O)CNC2CCN(c3ccc(NS(=O)(=O)c4ccc(-n5nnn(CCCC6CCCC6)c5=O)cc4)cc3)CC2)ccc1O` (stereo not drawn) [Example 288, 4-[4-(3-Cyclopentyl-propyl)-5-oxo-4,5-dihydro-tetrazol-1-yl]-N-(4-{4-[2-hydroxy-2-(4-hydroxy-3-methanesulfonylamino-phenyl)-ethaylamino]-piperidin-1-yl}-phenyl)-benzenesulfonamide]: in series [1], the “IA(β3)” value is 1.24. As for `CS(=O)(=O)Nc1cc(C(O)CNC2CCN(c3ccc(NS(=O)(=O)c4ccc(CC5SC(=O)NC5=O)cc4)cc3)CC2)ccc1O` (stereo not drawn) [Example 302, 4-[(2,4-Dioxo-1,3-thiazolidin-5-yl)methyl]-N-(4-{4-[(2-hydroxy-2-{4-hydroxy-3-[(methylsulfonyl)amino]phenyl}ethyl)amino]-1-piperidinyl}phenyl)benzenesulfonamide], the “IA(β3)” value in series [1] was 0.95. Regarding `CCCCCCNC(=O)Nc1ccc(S(=O)(=O)Nc2ccc(N3CCC(NC[C@H](O)COc4ccc(O)c5c4CCC(=O)N5)CC3)cc2)cc1` [Example 305, 4-{[(Hexylamino)carbonyl]amino}-N-{4-[4-({(2S)-2-hydroxy-3-[(8-hydroxy-2-oxo-1,2,3,4-tetrahydro-5-quinolinyl)oxy]propyl}amino)-1-piperidinyl]phenyl}benzenesulfonamide], in series [1], the “IA(β3)” value is 1. As to `CCCCCCCCS(=O)(=O)Nc1ccc(N2CCC(NCC(O)c3ccc(O)c(NS(C)(=O)=O)c3)CC2)cc1` (stereo not drawn) [Example 297, N-(4-{4-[(2-Hydroxy-2-{4-hydroxy-3-[(methylsulfonyl)amino]phenyl}ethyl)amino]-1-piperidinyl}phenyl)-1-octanesulfonamide], the “IA(β3)” value in series [1] was determined as 1.

For the compound `COc1cc(C(O)CNC2CCN(c3ccc(NS(=O)(=O)c4ccc(NC(C)=O)cc4)cc3)CC2)ccc1O` (stereo not drawn) [Example 267, N-(4-{[4-(4-{[2-Hydroxy-2-(4-hydroxy-3-methoxyphenyl)ethyl]amino}-1-piperidinyl)anilino]sulfonyl}phenyl)acetamide], the “IA(β3)” value in series [1] was found to be 0.99. The same measure, in the same setting: the figure for `COc1ccc(S(=O)(=O)Nc2ccc(N3CCC(NC[C@H](O)COc4cccc5[nH]c(=O)[nH]c45)CC3)cc2)cc1OC` [Example 359, N-{4-[4-({(2S)-2-Hydroxy-3-[(2-oxo-2,3-dihydro-1H-benzimidazol-4-yl)oxy]-propyl}amino)-1-piperidinyl]phenyl}-3,4-dimethoxybenzenesulfonamide] is 0.91; for `COC(=O)COc1ccc(S(=O)(=O)Nc2ccc(N3CCC(NC[C@H](O)c4ccc(O)c(NS(C)(=O)=O)c4)CC3)cc2)cc1` [Example 313, Methyl{4-[(4-{4-[((2R)-2-hydroxy-2-{4-hydroxy-3-[(methylsulfonyl)amino]-phenyl}ethyl)amino]-1piperidinyl}anilino)sulfonyl]phenoxy}acetate] it is 1. In the case of `CS(=O)(=O)Nc1cc([C@@H](O)CNC2CCN(c3ccc(NS(=O)(=O)CC(=O)OCc4ccccc4)cc3)CC2)ccc1O` [Example 322, Benzyl[(4-{4-[((2R)-2-hydroxy-2-{4-hydroxy-3-[(methylsulfonyl)amino]phenyl}-ethyl)amino]-1-piperidinyl}anilino)sulfonyl]acetate], the “IA(β3)” value in series [1] was 0.89.

Regarding `CS(=O)(=O)Nc1cc(C(O)CNC2CCN(c3ccc(NS(=O)(=O)c4ccc(-c5ccccn5)s4)cc3)CC2)ccc1O` (stereo not drawn) [Example 294, N-(4-{4-[(2-Hydroxy-2-{4-hydroxy-3-[(methylsulfonyl)amino]phenyl}ethyl)amino]-1-piperidinyl}phenyl)-5-(2-pyridinyl)-2-thiophenesulfonamide], the “IA(β3)” value in series [1] stood at 1.07. The same measure, in the same setting: with `COc1ccc(S(=O)(=O)Nc2ccc(N3CCC(NCC(O)c4cccc(O)c4)CC3)cc2)cc1` (stereo not drawn) [Example 256, N-(4-{4-[2-Hydroxy-2-(3-hydroxy-phenyl)-ethylamino]-piperidin-1-yl}-phenyl)-4-methoxy-benzenesulfonamide] the figure was 0.85. The same measure, in the same setting: with `CCCCOc1ccc(S(=O)(=O)Nc2ccc(N3CC(NC[C@H](O)COc4ccc(O)cc4)C3)cc2)cc1` [Example 411, 4-Butoxy-N-[4-(3-{[(2S)-2-hydroxy-3-(4-hydroxyphenoxy)propyl]amino}-1-azetidinyl)phenyl]benzenesulfonamide] the figure was 0.49; with `O=S(=O)(Nc1ccc(N2CCC(NC[C@H](O)COc3ccc(O)cc3)CC2)cc1)c1ccc(S(=O)(=O)c2ccc(C(F)(F)F)cn2)s1` [Example 300, N-[4-(4-{[(2S)-2-Hydroxy-3-(4-hydroxyphenoxy)propyl]amino}-1-piperidinyl)phenyl]-5-{[5-(trifluoromethyl)-2-pyridinyl]sulfonyl}-2-thiophenesulfonamide], 0.78; with `O=C1NC(=O)C(Cc2ccc(S(=O)(=O)Nc3ccc(N4CCC(NC[C@H](O)COc5cccc6[nH]c(=O)[nH]c56)CC4)cc3)cc2)S1` (stereo partly drawn) [Example 301, 4-[(2,4-Dioxo-1,3-thiazolidin-5-yl)methyl]-N-{4-[4-({(2S)-2-hydroxy-3-[(2-oxo-2,3-dihydro-1H-benzimidazol-4-yl)oxy]propyl}amino)-1-piperidinyl]phenyl}-benzenesulfonamide], 0.95.

On to `CC(=O)Nc1ccc(S(=O)(=O)Nc2ccccc2N2CCC(NC[C@H](O)c3ccc(O)c(O)c3)CC2)cc1` [Example 265, N-(4-{[2-(4-{[(2R)-2-(3,4-Dihydroxyphenyl)-2-hydroxyethyl]amino}-1-piperidinyl)-anilino]sulfonyl}phenyl)acetamide], for which the “IA(β3)” value in series [1] stood at 0.8.

Turning to `Cc1c(S(=O)(=O)Nc2ccc(N3CCC(NC[C@H](O)COc4cccc5[nH]c(=O)[nH]c45)CC3)cc2)sc2ccc(Cl)cc12` [Example 283, 5-Chloro-N-{4-[4-({(2S)-2-hydroxy-3-[(2-oxo-2,3-dihydro-1H-benzimidazol-4-yl)oxy]propyl}amino)-1-piperidinyl]phenyl}-3-methyl-1-benzothiophene-2-sulfonamide], the “IA(β3)” value in series [1] is given as 0.81. Turning to `CC(=O)Nc1ccc(S(=O)(=O)Nc2ccc(N3CCC(NC[C@H](O)COc4ccc(O)c5c4CCC(=O)N5)CC3)cc2)cc1` [Example 307, N-[4-({4-[4-({(2S)-2-Hydroxy-3-[(8-hydroxy-2-oxo-1,2,3,4-tetrahydro-5-quinolin)oxy]propyl}amino)-1-piperidinyl]anilino}sulfonyl)phenyl]acetamide], the “IA(β3)” value in series [1] was 1.
